The source made the active and inactive calls. The calls are words filed in the database; no cut-off is given here.
Tests used:
Enterovirus C [1] = test: Antiviral activity against Poliovirus infected african green monkey Vero cells assessed as reduction in virus-induced cytopathic effect at 50 ug/mL after 96 hrs measured as viral titer per ml by microscopy; format: functional
Semliki Forest virus [2] = test: Antiviral activity against Semliki forest virus infected african green monkey Vero cells assessed as reduction in virus-induced cytopathic effect at 50 ug/mL after 96 hrs measured as viral titer per ml by microscopy; format: functional
Measles morbillivirus [3] = test: Antiviral activity against Measles virus infected african green monkey Vero cells assessed as reduction in virus-induced cytopathic effect at 50 ug/mL after 96 hrs measured as viral titer per ml by microscopy; format: functional
Semliki Forest virus [4] = test: Antiviral activity against Semliki forest virus infected african green monkey Vero cells assessed as reduction in virus-induced cytopathic effect at 100 ug/mL after 96 hrs measured as viral titer per ml by microscopy; format: functional
Enterovirus C [5] = test: Antiviral activity against Poliovirus infected african green monkey Vero cells assessed as reduction in virus-induced cytopathic effect at 100 ug/mL after 96 hrs measured as viral titer per ml by microscopy; format: functional
Measles morbillivirus [6] = test: Antiviral activity against Measles virus infected african green monkey Vero cells assessed as reduction in virus-induced cytopathic effect at 100 ug/mL after 96 hrs measured as viral titer per ml by microscopy; format: functional
Simplexvirus [7] = test: Antiviral activity against Herpes simplex virus infected african green monkey Vero cells assessed as reduction in virus-induced cytopathic effect at 100 ug/mL after 96 hrs measured as viral titer per ml by microscopy; format: functional
Simplexvirus [8] = test: Antiviral activity against Herpes simplex virus infected african green monkey Vero cells assessed as reduction virus-induced cytopathic effect at 50 ug/mL after 96 hrs measured as viral titer per ml by microscopy; format: functional
Semliki Forest virus [9] = test: Antiviral activity against Semliki forest virus infected african green monkey Vero cells assessed as reduction in virus-induced cytopathic effect at 10 ug/mL after 96 hrs measured as viral titer per ml by microscopy; format: functional
Measles morbillivirus [10] = test: Antiviral activity against Measles virus infected african green monkey Vero cells assessed as reduction in virus-induced cytopathic effect at 5 ug/mL after 96 hrs measured as viral titer per ml by microscopy; format: functional
Measles morbillivirus [11] = test: Antiviral activity against Measles virus infected african green monkey Vero cells assessed as reduction in virus-induced cytopathic effect at 2.5 ug/mL after 96 hrs measured as viral titer per ml by microscopy; format: functional
Enterovirus C [12] = test: Antiviral activity against Poliovirus infected african green monkey Vero cells assessed as reduction in virus-induced cytopathic effect at 5 ug/mL after 96 hrs measured as viral titer per ml by microscopy; format: functional
Simplexvirus [13] = test: Antiviral activity against Herpes simplex virus infected african green monkey Vero cells assessed as reduction in virus-induced cytopathic effect at 2.5 ug/mL after 96 hrs measured as viral titer per ml by microscopy; format: functional
Simplexvirus [14] = test: Antiviral activity against Herpes simplex virus infected african green monkey Vero cells assessed as reduction in virus-induced cytopathic effect at 5 ug/mL after 96 hrs measured as viral titer per ml by microscopy; format: functional
Measles morbillivirus [15] = test: Antiviral activity against Measles virus infected african green monkey Vero cells assessed as reduction in virus-induced cytopathic effect at 10 ug/mL after 96 hrs measured as viral titer per ml by microscopy; format: functional
Enterovirus C [16] = test: Antiviral activity against Poliovirus infected african green monkey Vero cells assessed as reduction in virus-induced cytopathic effect at 2.5 ug/mL after 96 hrs measured as viral titer per ml by microscopy; format: functional
Semliki Forest virus [17] = test: Antiviral activity against Semliki forest virus infected african green monkey Vero cells assessed as reduction in virus-induced cytopathic effect at 2.5 ug/mL after 96 hrs measured as viral titer per ml by microscopy; format: functional
Simplexvirus [18] = test: Antiviral activity against Herpes simplex virus infected african green monkey Vero cells assessed as reduction in virus-induced cytopathic effect at 10 ug/mL after 96 hrs measured as viral titer per ml by microscopy; format: functional
Enterovirus C [19] = test: Antiviral activity against Poliovirus infected african green monkey Vero cells assessed as reduction in virus-induced cytopathic effect at 20 ug/mL after 96 hrs measured as viral titer per ml by microscopy; format: functional
Enterovirus C [20] = test: Antiviral activity against Poliovirus infected african green monkey Vero cells assessed as reduction in virus-induced cytopathic effect at 10 ug/mL after 96 hrs measured as viral titer per ml by microscopy; format: functional
Semliki Forest virus [21] = test: Antiviral activity against Semliki forest virus infected african green monkey Vero cells assessed as reduction in virus-induced cytopathic effect at 20 ug/mL after 96 hrs measured as viral titer per ml by microscopy; format: functional
Simplexvirus [22] = test: Antiviral activity against Herpes simplex virus infected african green monkey Vero cells assessed as reduction in virus-induced cytopathic effect at 20 ug/mL after 96 hrs measured as viral titer per ml by microscopy; format: functional
Semliki Forest virus [23] = test: Antiviral activity against Semliki forest virus infected african green monkey Vero cells assessed as reduction in virus-induced cytopathic effect at 5 ug/mL after 96 hrs measured as viral titer per ml by microscopy; format: functional
Measles morbillivirus [24] = test: Antiviral activity against Measles virus infected african green monkey Vero cells assessed as reduction in virus-induced cytopathic effect at 20 ug/mL after 96 hrs measured as viral titer per ml by microscopy; format: functional
[25] = Therapeutic index, ratio of cytotoxicity against african green monkey Vero cells to antiviral activity against Measles virus; format: cell-based; settings: read-out: TI
Vero [26] = test: Cytotoxicity against Herpes simplex virus infected african green monkey Vero cells assessed as monolayer destruction at 100 ug/mL; format: cell-based; settings: chlorocebus sabaeus
Vero [27] = test: Cytotoxicity against Measles virus infected african green monkey Vero cells assessed as monolayer destruction at 50 ug/mL; format: cell-based; settings: chlorocebus sabaeus
Enterovirus C [28] = test: Antiviral activity against Poliovirus infected african green monkey Vero cells assessed as reduction of virus-induced cytopathic effect at < 1 ug/mL after 4 days; format: functional, organism-based
Enterovirus C [29] = test: Antiviral activity against Poliovirus infected african green monkey Vero cells assessed as reduction of virus-induced cytopathic effect at 1 ug/mL after 4 days; format: functional, organism-based
Vero [30] = test: Cytotoxicity against Semliki forest virus infected african green monkey Vero cells assessed as monolayer destruction at 100 ug/mL; format: cell-based; settings: chlorocebus sabaeus
[31] = Therapeutic index, ratio of cytotoxicity against african green monkey Vero cells to antiviral activity against Poliovirus; format: cell-based; settings: read-out: TI
[32] = Therapeutic index, ratio of cytotoxicity against african green monkey Vero cells to antiviral activity against Semliki forest virus; format: cell-based; settings: read-out: TI
Vero [33] = test: Cytotoxicity against african green monkey Vero cells assessed as monolayer destruction at 50 ug/mL after 24 hrs by trypan blue exclusion test; format: cell-based; settings: chlorocebus sabaeus
Vero [34] = test: Cytotoxicity against Poliovirus infected african green monkey Vero cells assessed as monolayer destruction at 50 ug/mL; format: cell-based; settings: chlorocebus sabaeus
Vero [35] = test: Cytotoxicity against Semliki forest virus infected african green monkey Vero cells assessed as monolayer destruction at 50 ug/mL; format: cell-based; settings: chlorocebus sabaeus
[36] = Therapeutic index, ratio of cytotoxicity against african green monkey Vero cells to antiviral activity against Herpes simplex virus; format: cell-based; settings: read-out: TI
Vero [37] = test: Cytotoxicity against african green monkey Vero cells assessed as monolayer destruction at 10 ug/mL after 24 hrs by trypan blue exclusion test; format: cell-based; settings: chlorocebus sabaeus
Vero [38] = test: Cytotoxicity against Poliovirus infected african green monkey Vero cells assessed as monolayer destruction at > 25 ug/mL; format: cell-based; settings: chlorocebus sabaeus
Vero [39] = test: Cytotoxicity against Measles virus infected african green monkey Vero cells assessed as monolayer destruction at 100 ug/mL; format: cell-based; settings: chlorocebus sabaeus
Vero [40] = test: Cytotoxicity against Poliovirus infected african green monkey Vero cells assessed as monolayer destruction at 100 ug/mL; format: cell-based; settings: chlorocebus sabaeus
Vero [41] = test: Effect on african green monkey Vero cell growth assessed as doubling of cell generation at 1 ug/mL after 24 hrs by trypan blue exclusion test; format: cell-based; settings: chlorocebus sabaeus
Vero [42] = test: Cytotoxicity against african green monkey Vero cells assessed as monolayer destruction at 25 ug/mL after 24 hrs by trypan blue exclusion test; format: cell-based; settings: chlorocebus sabaeus
Vero [43] = test: Cytotoxicity against Herpes simplex virus infected african green monkey Vero cells assessed as monolayer destruction at 50 ug/mL; format: cell-based; settings: chlorocebus sabaeus
Enterovirus C [44] = test: Antiviral activity against Poliovirus infected african green monkey Vero cells assessed as reduction of virus-induced cytopathic effect at 1 ug/mL after 96 hrs by microscopy; format: functional, organism-based

CCOC(=O)c1cc(C(=O)O[C@H]2C[C@H]3CCN(C)[C@H]3[C@@H]3c4cc5c(cc4C(=O)O[C@H]32)OCO5)c(C)nc1C [CLIVIAMARTINE]
pTCD50 (Enterovirus C [1]): 1 | pTCD50 (Semliki Forest virus [2]): 1 | pTCD50 (Measles morbillivirus [3]): 1 | pTCD50 (Semliki Forest virus [4]): 10 | pTCD50 (Enterovirus C [5]): 10 | pTCD50 (Measles morbillivirus [6]): 1 | pTCD50 (Simplexvirus [7]): 10 | pTCD50 (Simplexvirus [8]): 10

Cc1nc(C)c(C(=O)O[C@H]2C[C@H]3CCN(C)[C@H]3[C@@H]3c4cc5c(cc4C(=O)O[C@H]32)OCO5)cc1C(=O)O[C@H]1C[C@H]2CCN(C)[C@H]2[C@@H]2c3cc4c(cc3C(=O)O[C@H]21)OCO4 [CLIVIMINE]
pTCD50 (Semliki Forest virus [9]): 1 | pTCD50 (Measles morbillivirus [10]): 1 | pTCD50 (Measles morbillivirus [11]): 1 | pTCD50 (Enterovirus C [12]): 1 | pTCD50 (Simplexvirus [13]): 1 | pTCD50 (Simplexvirus [14]): 1 | pTCD50 (Enterovirus C [1]): 1 | pTCD50 (Measles morbillivirus [15]): 1 | pTCD50 (Semliki Forest virus [2]): 1 | pTCD50 (Enterovirus C [16]): 1 | pTCD50 (Semliki Forest virus [17]): 1 | pTCD50 (Measles morbillivirus [3]): 1 | pTCD50 (Simplexvirus [18]): 1 | pTCD50 (Semliki Forest virus [4]): 10 | pTCD50 (Enterovirus C [5]): 10 | pTCD50 (Measles morbillivirus [6]): 1 | pTCD50 (Enterovirus C [19]): 1 | pTCD50 (Enterovirus C [20]): 1 | pTCD50 (Simplexvirus [7]): 1 | pTCD50 (Simplexvirus [8]): 1 | pTCD50 (Semliki Forest virus [21]): 1 | pTCD50 (Simplexvirus [22]): 1 | pTCD50 (Semliki Forest virus [23]): 1 | pTCD50 (Measles morbillivirus [24]): 1

CN1CC[C@@H]2C[C@H](O)[C@@H]3OC(=O)c4cc5c(cc4[C@H]3[C@@H]21)OCO5 [CLIVONINE]
pTCD50 (Enterovirus C [1]): 1 | pTCD50 (Semliki Forest virus [2]): 1 | pTCD50 (Measles morbillivirus [3]): 1 | pTCD50 (Semliki Forest virus [4]): 10 | pTCD50 (Enterovirus C [5]): 10 | pTCD50 (Measles morbillivirus [6]): 1 | pTCD50 (Simplexvirus [7]): 10 | pTCD50 (Simplexvirus [8]): 1

O[C@H]1[C@H]2c3cc4c(cc3CN3CCC(=C[C@@H]1O)[C@H]23)OCO4 [LYCORINE]
pTCD50 (Semliki Forest virus [9]): 1000 | selectivity ratio [25]: 10 | Activity (Vero [26]): Toxic | pTCD50 (Measles morbillivirus [10]): 100 | pTCD50 (Measles morbillivirus [11]): 100 | pTCD50 (Enterovirus C [12]): 100 | pTCD50 (Simplexvirus [13]): 100 | pTCD50 (Simplexvirus [14]): 1000 | pTCD50 (Measles morbillivirus [15]): 1000 | Activity (Vero [27]): Toxic | Activity (Enterovirus C [28]): inactive | Activity (Enterovirus C [29]): Active | Activity (Vero [30]): Toxic | selectivity ratio [31]: 10 | selectivity ratio [32]: 10 | pTCD50 (Enterovirus C [16]): 100 | Activity (Vero [33]): Toxic | pTCD50 (Semliki Forest virus [17]): 100 | Activity (Vero [34]): Toxic | pTCD50 (Simplexvirus [18]): 1000 | Activity (Vero [35]): Toxic | selectivity ratio [36]: 10 | pTCD50 (Enterovirus C [19]): 10000 | Activity (Vero [37]): Non-toxic | pTCD50 (Enterovirus C [20]): 1000 | Activity (Vero [38]): Toxic | pTCD50 (Semliki Forest virus [21]): 10000 | pTCD50 (Simplexvirus [22]): 1000 | Activity (Vero [39]): Toxic | pTCD50 (Semliki Forest virus [23]): 1000 | pTCD50 (Measles morbillivirus [24]): 1000 | Activity (Vero [40]): Toxic | Activity (Vero [41]): Active | Activity (Vero [42]): Non-toxic | Activity (Vero [43]): Toxic | Activity (Enterovirus C [44]): Active
